The values below come from patent US20100324152A1, “USE OF 1,2-DECANEDIOL FOR SEBUM REDUCTION AND COSMETIC AND/OR DERMATOLOGICAL FORMULATIONS COMPRISING 1,2-DECANEDIOL” (priority 2006, published 2010).

Series [1] in a line: Dropping point of a model sebum containing 1,2-decanediol (AOCS Cc 18-80/ASTM D 3954). As to conditions: addition of 20 wt. % 1,2-decanediol to model sebum, versus 1,2-decanediol-free model sebum. Type of series: physicochemical. The source says:
To check the extent to which 1,2-decanediol has a sebum-fluidizing property and is therefore capable of reducing the sebum concentration on the skin surface, and in particular in the sebaceous gland follicles, by a physical route, the influence of 1,2-decanediol on the dropping point of a model sebum was first investigated. On the basis of these publications, a model […] was developed which substantially comprises saturated and unsaturated free fatty acids, wax-like substances, triglycerides and cholesterol and, in detail, is composed of the following substances: palmitic acid, oleic acid, stearic acid, squalene, myristyl myristate, cetyl palmitate, tripalmitin, triolein and cholesterol. The exact quantitative composition of the model sebum (contents of the individual substances in per cent by weight; wt. %) can be seen from the following Table 1. [table] To investigate the influence of 1,2-decanediol on the physical properties of the model sebum, 20 wt. % 1,2-decanediol was added to the model sebum. The dropping points of the 1,2-decanediol-free model sebum and the model sebum sample containing 20 wt. % 1,2-decanediol were then determined using the method for dropping point determination according to AOCS Cc 18-80/ASTM D 3954.

The test system of a further series is P. acnes. As to conditions: reported in EP 1 598 064 A1; cited from earlier work.

As for `CCCCCCCCC(O)CO` (centres unmarked) [1,2-decanediol], the “reduction of the dropping point of model sebum” value in series [1] came to 12.7 °C. The “antibacterial action in the suspension test” value in the series with P. acnes is “as good as no antibacterial action”.
